Experimental data: EP1247803A2, “Indolinone compounds suitable for modulation of protein kinases” (Sugen, Inc., priority 1996, dated 1998)

Columns and labels:
FLK-1 receptor = target: T1, FLK-1 receptor (Mus musculus, UniProt P35918); assay: FLK-1 ELISA (kinase activity of the FLK-1 receptor in FLK-1/NIH3T3 cells, VEGF stimulated); format: cell-based
T1 construct: expressed in transfected cells; host or cells: NIH3T3 C7#3
Summary of the method: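 FLK-1-expressing NIH3T3 C7#3 cells, starved overnight in 0.1% FBS medium, were treated with compounds at a 1:200 final dilution (0.5% DMSO) for 2 h at 37 °C, with VEGF stimulation. FLK-1 kinase activity was read by ELISA on anti-rabbit IgG plates using affinity-purified anti-FLK-1 antiserum.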

MET = MET biochemical kinase assay; set-up: species or system human; concentration or dose not given beside the values
Summary of the method: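 Capture ELISA: anti-rabbit Fc coat, rabbit anti-MET cytoplasmic domain pAb, lysate MET captured, washed. Compound + kinase buffer (ATP, divalent metals). Readout anti-pTyr-HRP/TMB, colorimetric.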

T1 sequence (P35918 20-1345): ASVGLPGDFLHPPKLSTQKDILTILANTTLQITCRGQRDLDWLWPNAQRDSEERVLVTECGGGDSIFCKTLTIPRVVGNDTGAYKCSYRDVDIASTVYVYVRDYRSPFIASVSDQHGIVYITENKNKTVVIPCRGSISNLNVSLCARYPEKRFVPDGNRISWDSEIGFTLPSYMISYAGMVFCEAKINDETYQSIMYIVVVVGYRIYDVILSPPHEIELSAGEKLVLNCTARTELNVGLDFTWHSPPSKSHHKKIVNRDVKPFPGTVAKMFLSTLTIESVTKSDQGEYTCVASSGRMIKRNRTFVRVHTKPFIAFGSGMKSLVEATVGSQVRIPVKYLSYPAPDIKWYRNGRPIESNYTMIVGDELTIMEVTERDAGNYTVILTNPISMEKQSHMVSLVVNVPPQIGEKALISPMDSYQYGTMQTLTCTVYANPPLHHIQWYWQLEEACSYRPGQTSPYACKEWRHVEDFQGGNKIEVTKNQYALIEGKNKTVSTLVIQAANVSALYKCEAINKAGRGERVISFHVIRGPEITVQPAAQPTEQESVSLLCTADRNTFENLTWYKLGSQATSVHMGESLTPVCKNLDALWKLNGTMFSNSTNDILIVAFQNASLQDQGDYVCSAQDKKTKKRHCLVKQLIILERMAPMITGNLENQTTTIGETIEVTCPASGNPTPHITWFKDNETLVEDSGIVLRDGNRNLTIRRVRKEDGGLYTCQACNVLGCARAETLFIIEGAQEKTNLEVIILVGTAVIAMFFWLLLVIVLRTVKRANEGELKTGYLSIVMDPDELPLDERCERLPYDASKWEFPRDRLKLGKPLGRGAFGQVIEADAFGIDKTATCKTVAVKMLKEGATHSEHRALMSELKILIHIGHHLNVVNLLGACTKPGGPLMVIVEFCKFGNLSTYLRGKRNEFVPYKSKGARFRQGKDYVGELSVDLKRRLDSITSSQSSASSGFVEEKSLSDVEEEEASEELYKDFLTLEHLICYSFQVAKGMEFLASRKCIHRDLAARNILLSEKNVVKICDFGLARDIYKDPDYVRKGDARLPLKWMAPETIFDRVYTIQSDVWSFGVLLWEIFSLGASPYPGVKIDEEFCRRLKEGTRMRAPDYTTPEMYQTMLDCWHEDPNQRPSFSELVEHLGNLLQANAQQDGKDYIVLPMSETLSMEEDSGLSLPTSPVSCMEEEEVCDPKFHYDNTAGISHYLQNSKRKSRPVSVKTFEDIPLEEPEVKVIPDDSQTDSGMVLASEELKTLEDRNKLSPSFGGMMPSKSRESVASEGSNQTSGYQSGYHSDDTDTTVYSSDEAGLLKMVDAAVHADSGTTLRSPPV

SMILES | Fik Kinase %Inhibition (FLK-1 receptor) | Met Kinase % Inhibition (MET)
Cc1[nH]c(C=C2C(=O)Nc3ccc(CCCl)cc32)c(Br)c1Br [10717/G11] | 16.4% | 73.8%
CCOC(=O)c1c(C)[nH]c(C=C2C(=O)Nc3c(Br)cc(Br)cc32)c1C [10718/A02] | 3.0% | 54.6%
COc1cc(Br)c(O)c(C=C2C(=O)Nc3c(Br)cc(Br)cc32)c1 [10718/A03] | 7.6% | 92.7%
O=C1Nc2c(Br)cc(Br)cc2C1=Cc1ccc2ccccc2c1O [10718/A04] | 6.9% | 81.7%
CCOC(=O)CCc1c(C(=O)OCC)[nH]c(C=C2C(=O)Nc3c(Br)cc(Br)cc32)c1CC(=O)OCC [10718/A05] | 3.2% | 36.1%
CCOC(=O)c1cc(C=C2C(=O)Nc3c(Br)cc(Br)cc32)oc1C [10718/A06] | 7.8% | 61.3%
COC(=O)c1[nH]c(C)c(C=C2C(=O)Nc3c(Br)cc(Br)cc32)c1C(=O)OC [10718/A07] | 16.2% | 58.6%
O=C1Nc2c(Br)cc(Br)cc2C1=Cc1ccc(Cl)c([N+](=O)[O-])c1 [10718/A08] | 3.2% | 36.8%
CNS(=O)(=O)c1ccc2c(c1)C(=Cc1cc(Cl)cc(Br)c1O)C(=O)N2 [10727/D04] | 25.9% | 76.0%
CNS(=O)(=O)c1ccc2c(c1)C(=Cc1ccccc1Sc1ccc(Cl)cc1)C(=O)N2 [10727/D05] | 8.5% | 39.9%
CNS(=O)(=O)c1ccc2c(c1)C(=Cc1cc3c(cc1Cl)OCO3)C(=O)N2 [10727/D06] | 13.1% | 24.4%
CNS(=O)(=O)c1ccc2c(c1)C(=Cc1coc3ccccc3c1=O)C(=O)N2 [10727/D07] | 19.7% | 50.6%
CNS(=O)(=O)c1ccc2c(c1)C(=Cc1cccc(C#N)c1)C(=O)N2 [10727/D08] | 14.1% | 8.5%
CNS(=O)(=O)c1ccc2c(c1)C(=Cc1ccc(C#N)cc1)C(=O)N2 [10727/D09] | 8.2% | 17.9%
CNS(=O)(=O)c1ccc2c(c1)C(=Cc1cc(O)ccc1O)C(=O)N2 [10727/D10] | 11.4% | 79.9%
CNS(=O)(=O)c1ccc2c(c1)C(=Cc1cccc(OC)c1OC)C(=O)N2 [10727/D11] | 10.5% | 17.3%
CCN(CC)c1ccc(C=C2C(=O)Nc3ccc(S(=O)(=O)Nc4ccc(C(F)(F)F)cc4)cc32)cc1 [10727/E02] | 9.3% | 28.0%
CCc1cc(CC)c(C=C2C(=O)Nc3ccc(S(=O)(=O)Nc4ccc(C(F)(F)F)cc4)cc32)[nH]1 [10727/E03] | 11.1% | 28.8%
O=C1Nc2ccc(S(=O)(=O)Nc3ccc(C(F)(F)F)cc3)cc2C1=Cc1cc(Cl)cc(Br)c1O [10727/E04] | 46.1% | 98.4%
O=C1Nc2ccc(S(=O)(=O)Nc3ccc(C(F)(F)F)cc3)cc2C1=Cc1ccccc1Sc1ccc(Cl)cc1 [10727/E05] | 17.1% | 12.1%

SMILES | Fik Kinase %Inhibition (FLK-1 receptor) | Met Kinase % Inhibition (MET)
O=C1Nc2ccc(S(=O)(=O)Nc3ccc(C(F)(F)F)cc3)cc2C1=Cc1cc2c(cc1Cl)OCO2 [10727/E06] | 14.2% | -2.2%
O=C1Nc2ccc(S(=O)(=O)Nc3ccc(C(F)(F)F)cc3)cc2C1=Cc1coc2ccccc2c1=O [10727/E07] | 20.1% | 45.2%
N#Cc1cccc(C=C2C(=O)Nc3ccc(S(=O)(=O)Nc4ccc(C(F)(F)F)cc4)cc32)c1 [10727/E08] | 14.2% | 27.0%
N#Cc1ccc(C=C2C(=O)Nc3ccc(S(=O)(=O)Nc4ccc(C(F)(F)F)cc4)cc32)cc1 [10727/E09] | 9.3% | 28.4%
O=C1Nc2ccc(S(=O)(=O)Nc3ccc(C(F)(F)F)cc3)cc2C1=Cc1cc(O)ccc1O [10727/E10] | 9.7% | 96.6%
COc1cccc(C=C2C(=O)Nc3ccc(S(=O)(=O)Nc4ccc(C(F)(F)F)cc4)cc32)c1OC [10727/E11] | 37.3% | -5.4%
CCN(CC)c1ccc(C=C2C(=O)Nc3ccc(S(=O)(=O)N4CCOCC4)cc32)cc1 [10727/F02] | 15.9% | 52.0%
CCc1cc(CC)c(C=C2C(=O)Nc3ccc(S(=O)(=O)N4CCOCC4)cc32)[nH]1 [10727/F03] | 8.9% | 22.0%
O=C1Nc2ccc(S(=O)(=O)N3CCOCC3)cc2C1=Cc1cc(Cl)cc(Br)c1O [10727/F04] | 15.3% | 92.0%
O=C1Nc2ccc(S(=O)(=O)N3CCOCC3)cc2C1=Cc1ccccc1Sc1ccc(Cl)cc1 [10727/F05] | 21.8% | 6.0%
O=C1Nc2ccc(S(=O)(=O)N3CCOCC3)cc2C1=Cc1cc2c(cc1Cl)OCO2 [10727/F06] | 14.5% | 37.7%
O=C1Nc2ccc(S(=O)(=O)N3CCOCC3)cc2C1=Cc1coc2ccccc2c1=O [10727/F07] | 21.4% | 17.9%
N#Cc1cccc(C=C2C(=O)Nc3ccc(S(=O)(=O)N4CCOCC4)cc32)c1 [10727/F08] | 12.5% | 36.9%
N#Cc1ccc(C=C2C(=O)Nc3ccc(S(=O)(=O)N4CCOCC4)cc32)cc1 [10727/F09] | -45.2% | 9.3%
O=C1Nc2ccc(S(=O)(=O)N3CCOCC3)cc2C1=Cc1cc(O)ccc1O [10727/F10] | 15.9% | 93.4%
COc1cccc(C=C2C(=O)Nc3ccc(S(=O)(=O)N4CCOCC4)cc32)c1OC [10727/F11] | 17.3% | -3.0%
CCN(CC)c1ccc(C=C2C(=O)Nc3ccc(CCCl)cc32)cc1 [10727/G02] | 7.1% | 81.5%
CCc1cc(CC)c(C=C2C(=O)Nc3ccc(CCCl)cc32)[nH]1 [10727/G03] | -3.5% | 40.5%
O=C1Nc2ccc(CCCl)cc2C1=Cc1cc(Cl)cc(Br)c1O [10727/G04] | 27.2% | 94.0%
O=C1Nc2ccc(CCCl)cc2C1=Cc1ccccc1Sc1ccc(Cl)cc1 [10727/G05] | 8.0% | 7.1%

SMILES | Fik Kinase %Inhibition (FLK-1 receptor) | Met Kinase % Inhibition (MET)
O=C1Nc2ccc(CCCl)cc2C1=Cc1cc2c(cc1Cl)OCO2 [10727/G06] | 2.9% | 31.1%
O=C1Nc2ccc(CCCl)cc2C1=Cc1coc2ccccc2c1=O [10727/G07] | 7.2% | 29.6%
N#Cc1cccc(C=C2C(=O)Nc3ccc(CCCl)cc32)c1 [10727/G08] | 15.7% | 21.8%
N#Cc1ccc(C=C2C(=O)Nc3ccc(CCCl)cc32)cc1 [10727/G09] | 5.7% | 18.8%
O=C1Nc2ccc(CCCl)cc2C1=Cc1cc(O)ccc1O [10727/G10] | -5.6% | 99.2%
COc1cccc(C=C2C(=O)Nc3ccc(CCCl)cc32)c1OC [10727/G11] | 6.9% | -0.8%
COc1ccc(OC)c(C=C2C(=O)Nc3c(Br)cc(Br)cc32)c1 [10728/A02] | -12.3% | 25.6%
COc1cccc(OC)c1C=C1C(=O)Nc2c(Br)cc(Br)cc21 [10728/A03] | -7.3% | 29.2%
COc1cc(C=C2C(=O)Nc3c(Br)cc(Br)cc32)cc(OC)c1 [10728/A04] | -3.5% | 28.5%
COc1cc(N(C)C)ccc1C=C1C(=O)Nc2c(Br)cc(Br)cc21 [10728/A05] | -10.8% | 31.8%
O=C1Nc2c(Br)cc(Br)cc2C1=Cc1ccc2c(c1)Cc1ccccc1-2 [10728/A06] | -10.4% | 19.7%
O=C1Nc2c(Br)cc(Br)cc2C1=Cc1cccc(C(F)(F)F)c1F [10728/A07] | -21.6% | 28.5%
O=C1Nc2c(Br)cc(Br)cc2C1=Cc1cc(C(F)(F)F)ccc1F [10728/A08] | -1.4% | 40.2%
O=C1Nc2c(Br)cc(Br)cc2C1=Cc1c(F)cccc1C(F)(F)F [10728/A09] | -5.5% | 53.1%
O=C(O)COc1ccccc1C=C1C(=O)Nc2c(Br)cc(Br)cc21 [10728/A10] | -16.3% | 77.2%
COc1cc(C=C2C(=O)Nc3c(Br)cc(Br)cc32)cc2c1OCO2 [10728/A11] | -2.3% | 58.8%
COc1ccc(OC)c(C=C2C(=O)Nc3ccc(I)cc32)c1 [10728/B02] | -11.1% | 61.2%
COc1cccc(OC)c1C=C1C(=O)Nc2ccc(I)cc21 [10728/B03] | -1.3% | 74.4%
COc1cc(C=C2C(=O)Nc3ccc(I)cc32)cc(OC)c1 [10728/B04] | -6.0% | 67.2%
